Results published in US20040210063A1 (priority 2001, published 2004).
pIC50: −log10 of the molar value. Counter-ions that a name gives are not always drawn.

Key:
human GSK-3β = human GSK-3β (Homo sapiens, UniProt P49841); assay: Assay (I): inhibition of GSK-3, 33P-ATP phosphorylation of a glycogen synthase derived substrate; assay type: biochemical; conditions: 35 μM substrate, 0.1 mM 33P-labeled ATP, 60 min at room temperature
Method: Inhibition of GSK-3 by a test compound was evaluated using human GSK-3β and a glycogen synthase derived substrate with the following amino acid sequence:
In brief, GSK-3β was incubated with 35 μM substrate and varying concentrations of test compound in a buffer containing 0.1 mM ^33P-labeled ATP, 10 mM magnesium acetate, 8 mM MOPS pH 7.0, 0.2 mM EDTA, 0.1% dithiothreitol and 0.03% Triton-X100 for 60 min at room temperature. The reaction was performed using 96-well plates. The reaction was terminated by adding 13 μl 2% phosphoric acid to each well, and 10 μl was spotted onto P30 paper which was washed 4 times in 0.5% phosphoric acid to remove non-incorporated ^33P-labeled ATP. After drying the radioactivity was counted in a Wallac. Dose-response profiles were generated, and the IC50 value for inhibition of GSK-3 by the test compound was calculated using a four-parameter logistic function.

[1] = test system: cyclin-dependent kinases (CDKs); conditions: at the tested concentration; Table I of WO 99/21845; cited from earlier work

Chain of human GSK-3β (P49841 whole entry): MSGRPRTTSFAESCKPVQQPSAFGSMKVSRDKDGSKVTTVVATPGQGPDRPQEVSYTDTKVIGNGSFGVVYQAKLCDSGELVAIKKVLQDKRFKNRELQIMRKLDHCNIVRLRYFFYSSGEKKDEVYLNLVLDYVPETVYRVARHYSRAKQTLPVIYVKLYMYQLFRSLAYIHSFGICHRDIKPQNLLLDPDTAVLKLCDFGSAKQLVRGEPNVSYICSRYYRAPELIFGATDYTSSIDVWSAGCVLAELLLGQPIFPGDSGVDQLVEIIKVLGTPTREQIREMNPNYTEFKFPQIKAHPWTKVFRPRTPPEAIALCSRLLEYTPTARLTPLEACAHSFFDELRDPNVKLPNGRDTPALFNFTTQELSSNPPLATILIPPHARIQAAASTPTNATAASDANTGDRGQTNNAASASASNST

Structure (SMILES)	melting point	pIC50 (human GSK-3β)	CDK inhibition [1]
CN1CCN(CCCNc2nc(N)c(C(=O)c3ccc(Cl)s3)s2)CC1 (as salt: hydrochloride) [Example 8, {4-Amino-2-[3-(4-methylpiperazin-1-yl)propylamino]thiazol-5-yl}-(5-chlorothiophen-2-yl)methanone]	210 to 212 °C	–	–
CN1CCN(CCCNc2nc(N)c(C(=O)c3cccc(OCc4ccccc4)c3)s2)CC1 (as salt: hydrochloride) [Example 10, {4-Amino-2-[3-(4-methylpiperazin-1-yl)propylamino]thiazol-5-yl}-(3-benzyloxyphenyl)methanone]	99 to 100 °C	–	–
CC(C)(C)OC(=O)NCCCNc1nc(N)c(C(=O)c2ccc(Cl)s2)s1 [Example 3, 3-[4-Amino-5-(5-chlorothiophene-2-carbonyl)thiazol-2-ylamino]propylcarbamic acid tert-butyl ester]	–	> 6.00	–
CC(C)(C)OC(=O)N1CCC(Nc2nc(N)c(C(=O)c3cccc(OCc4ccccc4)c3)s2)CC1 [Example 5, 4-[4-Amino-5-(3-benzyloxybenzoyl)thiazol-2-ylamino]piperidine-1-carboxylic acid tert-butyl ester]	–	> 6.00	–
CC(C)(C)OC(=O)NCCCNc1nc(N)c(C(=O)c2cccc(OCc3ccccc3)c2)s1 [Example 6, {3-[4-Amino-5-(3-benzyloxybenzoyl)thiazol-2-ylamino]propyl}carbamic acid tert-butyl ester]	–	> 6.00	–
Nc1nc(NCCCN2CCCC2=O)sc1C(=O)c1ccc(Cl)s1 [Example 7, 1-{3-[4-Amino-5-(5-chlorothiophene-2-carbonyl)thiazol-2-ylamino]propyl}pyrrolidin-2-one]	224 to 225 °C	> 6.00	–
Nc1nc(NCCCN2CCCC2=O)sc1C(=O)c1cccc(OCc2ccccc2)c1 [Example 9]	184 °C	> 6.00	–
CN1CCN(CCCNc2nc(N)c(C(=O)c3cccc(OCc4ccccc4)c3)s2)CC1 [Example 10, {4-Amino-2-[3-(4-methylpiperazin-1-yl)propylamino]thiazol-5-yl}-(3-benzyloxyphenyl)methanone]	–	> 6.00	–
Nc1nc(NCCN2CCCCC2)sc1C(=O)c1ccc(F)cc1 [I(6)]	–	–	No CDK inhibition was observed
